In patent US20120122870A1, “Treatment Of Ischemia-Reperfusion Injury” (MUSC FOUNDATION FOR RESEARCH DEVELOPMENT, priority 2009, published 2012):
Entries after “also recorded” stand apart in the source; their conditions may differ.

What was measured:
[1] = tested on: severe kidney ischemia-reperfusion in mice; experiment: Ischemia-reperfusion of the kidney (severe model), survival, BUN and creatinine; assay type: in vivo
Protocol: ABC294640 promotes survival in a severe model of kidney damage. To evaluate the protective effects of ABC294640 in a more severe IR model, mice were treated with ABC294640 (50 mg/kg in 0.1 mL by oral gavage) or vehicle (0.1 ml in 0.375% Tween-80 in PBS), and then the right kidney was ligated and removed and the left kidney pedicle was clamped for 45 min before reperfusion. Animals were assessed daily for postoperative health, including scoring for weight loss, activity and appearance. Following severe IR, vehicle-treated mice consistently died or were sacrificed because of severe ill health on post-surgery Day 2 (FIG. 3). In marked contrast, mice that received 50 mg/kg ABC294640 preoperatively all survived the IR insult.
ABC294640 protects against renal failure in a severe model of kidney damage. Blood was drawn from the severe IR mice at sacrifice, and levels of blood urea nitrogen (BUN) and creatinine were determined as indicators of renal function (FIG. 4). As expected, serum creatinine and BUN levels were highly elevated in the vehicle-treated IR animals (clear bars) compared with sham animals (hatched bars), indicative of post-surgical renal failure.
Ischemia-reperfusion of the kidney (severe model): The irreversible model was performed in a similar manner to the reversible model described above with the exception that the right kidney pedicle was tied off and the kidney removed and the left kidney was clamped for 45 minutes.

[2] = tested on: SK expression in the liver; experiment: SK immunohistochemistry in liver after hepatic warm IR; assay type: in vivo, mice; details: 50 mg/kg gavage 1 h prior to surgery; 1 h-ischemia plus 6 h-reperfusion
Protocol: Warm IR upregulates SK in the liver. IR injury to the liver occurs in LT. Since SK is associated with inflammatory processes, we investigated whether IR affects SK expression in the liver. Male C57BL/6 mice (8-9 weeks) were gavaged with ABC294640 (ABC, 50 mg/kg) or an equal volume of vehicle (0.375% Tween-80 in phosphate buffer) 1 h prior to surgery. Under ether anesthesia, hepatic ischemia was induced by clamping the hepatic artery and portal vein to the upper three lobes of the liver (i.e., about 70% of total liver). One hour later, the ischemic liver was reperfused by opening the vascular clamp. Livers were collected 6 h later under pentobarbital anesthesia (80 mg/kg, i.p.) and SK was detected immunohistochemically. […] SK expression increased markedly after hepatic IR (FIG. 9 middle). Upregulation of SK occurred most overtly in hepatocytes in the midzonal regions of the liver lobule. […] Immunohistochemistry: Sections were deparaffinized in xylene, rehydrated in a series of graded alcohol concentrations and placed in phosphate buffered saline with 0.1% Tween-20. […] Appropriate peroxidase-conjugated secondary antibodies (DAKO Corp.) were then applied, followed by 3,3'-diaminobenzidine chromagen as the peroxidase substrate. A light counterstain of Meyer's hematoxylin was applied.

[3] = severe kidney IR, 48 hr (2 days) post-surgery
[4] = severe kidney IR, post-surgery Day 10

**Q.** How did the “survival after severe kidney IR” value ([1]; 50 mg/kg oral gavage preoperatively, right kidney removed, left pedicle clamped 45 min) turn out when `O=C(NCc1ccncc1)C12CC3CC(C1)CC(c1ccc(Cl)cc1)(C3)C2` [ABC294640, 3-(4-chlorophenyl)-N-(pyridin-4-ylmethyl)adamantane-1-carboxamide] was run?
**A.** Its value is “all survived”.

**Q.** What about the “survival time after severe kidney IR” value ([1]; 50 mg/kg oral gavage, right kidney removed, left kidney clamped 45 minutes) of the same compound?
**A.** Its value is “at least 9 days”.

**Q.** And the “postoperative health at sacrifice” value ([1]; severe kidney IR, 50 mg/kg, post-surgery Day 9, 50 mg/kg)?
**A.** Its value is “in good health; also recorded: appeared robust and were gaining weight”.

**Q.** And the BUN vs vehicle [1, 3]?
**A.** Its BUN vs vehicle is “significantly reduced”.

**Q.** And the “serum creatinine vs vehicle” value [1, 3]?
**A.** The value was “significantly reduced”.

**Q.** And the BUN [1, 4]?
**A.** Its BUN is “returned to normal; also recorded: returning to normal”.

**Q.** And the serum creatinine [1, 4]?
**A.** Its serum creatinine is “returned to normal; also recorded: returning to normal”.

**Q.** And the “upregulation of SK after hepatic IR” value [2]?
**A.** Its value is “prevents upregulation; also recorded: attenuated upregulation”.
